# Reference: patent US20110313156A1 (BOEHRINGER INGELHEIM INTERNATIONAL GMBH, priority 2008, published 2011)
# Target: T1, His6-PDK1 (aa 52-556) (Homo sapiens, UniProt O15530)
# T1 construct: 15 μL His6-PDK1 (aa 52-556) 3.33 ng/well); host or cells: baculovirus-infected insect cells
# T1 sequence (O15530 52-556): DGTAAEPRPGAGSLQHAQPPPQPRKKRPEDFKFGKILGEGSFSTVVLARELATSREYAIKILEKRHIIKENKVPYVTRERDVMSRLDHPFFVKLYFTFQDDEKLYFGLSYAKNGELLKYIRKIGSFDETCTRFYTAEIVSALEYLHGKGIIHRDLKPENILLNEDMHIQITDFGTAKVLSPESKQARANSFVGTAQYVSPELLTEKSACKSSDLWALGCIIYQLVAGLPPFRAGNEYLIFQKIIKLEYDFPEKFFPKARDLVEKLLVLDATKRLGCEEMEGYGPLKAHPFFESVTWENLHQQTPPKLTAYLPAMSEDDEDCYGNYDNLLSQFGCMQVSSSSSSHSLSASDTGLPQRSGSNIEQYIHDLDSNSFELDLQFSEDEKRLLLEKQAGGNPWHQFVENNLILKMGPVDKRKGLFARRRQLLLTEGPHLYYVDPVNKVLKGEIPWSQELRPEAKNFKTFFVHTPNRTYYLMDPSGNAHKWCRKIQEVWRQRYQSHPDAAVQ
# Experiment: PDK1 kinase assay III (with Tween 20)
# Type: biochemical
# Conditions: compound at 10 μM; PDK1 kinase assay III (values without asterisk); read-out: % CTL (residual activity of the enzyme relative to DMSO control)
# Description: Purified enzyme may be obtained for example from the University of Dundee, Scotland.
# Another PDK1 assay was developed which by comparison with PDK1 assay 1 additionally contains Tween 20:
# The final concentration of Tween 20 is 0.005%.
# The reaction is started by adding the ATP solution and the mixture is incubated for 90 min at ambient temperature; at the start of the reaction the dishes are shaken gently. The reaction is stopped by the addition of 50 μL/well of 500 mM phosphoric acid (H3PO4) and incubated for about 20 min at ambient temperature. […] The measured data are evaluated using Graphpad Prism software.
# The % CTL values indicate the residual activity of the enzyme after the addition of the inhibitory compound in the solvent DMSO in relation to the enzyme activity in the solvent DMSO without the addition of a compound (control). The majority of the values were determined using the PDK1 kinase assay III described hereinbefore. The values marked with an asterisk (* or**) were determined using the PDK1 kinase assay II described hereinbefore (one asterisk→incubation for 24 h; two asterisks→incubation for 5 min)
row,remaining activity at 10 µM [%],SMILES
1,61.8,COc1cc(C(=O)NC2CCN(C)CC2)ccc1Nc1ncc2cc(C#CCNC(=O)c3c(C)n(C)n(Cc4ccc(F)c(F)c4)c3=O)ccc2n1
2,13.3,CN(C)Cc1ccc(Nc2ncc3cc(C#CCNC(=O)c4ccnn(Cc5ccc(F)c(F)c5)c4=O)ccc3n2)cc1
3,9.8,Cc1c(C(=O)NCC#Cc2cc(OCCN)c3nc(Nc4ccccc4)ncc3c2)c(=O)n(Cc2ccc(F)c(F)c2)n1C
4,13.7,NCCOc1cc(C#CCNC(=O)c2cncn(Cc3ccc(F)c(F)c3)c2=O)cc2cnc(Nc3ccccc3)nc12
5,19.5,Cc1c(C(=O)NC/C=C/c2cc(OCCN)c3nc(Nc4ccccc4)ncc3c2)c(=O)n(Cc2ccc(F)c(F)c2)n1C
6,13,Cc1c(C(=O)NC/C=C/c2cc(OCCN)c3nc(Nc4ccc(N5CCOCC5)cc4)ncc3c2)c(=O)n(Cc2ccc(F)c(F)c2)n1C
7,18.3,NCCOc1cc(C#CCNC(=O)c2cncn(Cc3ccc(F)c(F)c3)c2=O)cc2cnc(Nc3ccc(N4CCOCC4)cc3)nc12
8,13.8,Cc1c(C(=O)NCC#Cc2cc(OCCN)c3nc(Nc4ccc(N5CCOCC5)cc4)ncc3c2)c(=O)n(Cc2ccc(F)c(F)c2)n1C
9,10.1,NCCOc1cc(/C=C/CNC(=O)c2cncn(Cc3ccc(F)c(F)c3)c2=O)cc2cnc(Nc3ccc(N4CCOCC4)cc3)nc12
10,12.3,O=C(NC/C=C/c1cc(OC2CCNCC2)c2nc(Nc3ccc(N4CCOCC4)cc3)ncc2c1)c1cncn(Cc2ccc(F)c(F)c2)c1=O
11,9.4,O=C(NCC#Cc1cc(OC2CCNCC2)c2nc(Nc3ccc(N4CCOCC4)cc3)ncc2c1)c1cncn(Cc2ccc(F)c(F)c2)c1=O
12,12.3,Cc1c(C(=O)NCC#Cc2cc(OC3CCNCC3)c3nc(Nc4ccc(N5CCOCC5)cc4)ncc3c2)c(=O)n(Cc2ccc(F)c(F)c2)n1C
13,12.5,Cc1c(C(=O)NC/C=C/c2cc(OCCCN)c3nc(Nc4ccc(N5CCOCC5)cc4)ncc3c2)c(=O)n(Cc2ccc(F)c(F)c2)n1C
14,10.3,Cc1c(C(=O)NC/C=C/c2cc(OC3CCNC3)c3nc(Nc4ccc(N5CCOCC5)cc4)ncc3c2)c(=O)n(Cc2ccc(F)c(F)c2)n1C (stereo not drawn)
15,19.3,CNC(=O)c1cccc(Nc2ncc3cc(C#CCNC(=O)c4c(C)n(C)n(Cc5ccc(F)c(F)c5)c4=O)ccc3n2)c1
16,18.1,"O=C1Nc2cc(/C=C/CNC(=O)c3cncn(Cc4ccc(F)c(F)c4)c3=O)ccc2/C1=C/c1ccc[nH]1 [I-1, 1-(3,4-difluorobenzyl)-6-oxo-N-{(2E)-3-[(3Z)-2-oxo-3-(1H-pyrrol-2-ylmethylidene)-2,3-dihydro-1H-indol-6-yl]prop-2-en-1-yl}-1,6-dihydropyrimidine-5-carboxamide]"
17,12.2,"O=C1Nc2cc(/C=C/CNC(=O)c3cncn(Cc4ccc(F)c(F)c4)c3=O)ccc2/C1=C/c1cnc[nH]1 [I-2, 1-(3,4-difluorobenzyl)-N-{(2E)-3-[(3Z)-3-(1H-imidazol-5-ylmethylidene)-2-oxo-2,3-dihydro-1H-indol-6-yl]prop-2-en-1-yl}-6-oxo-1,6-dihydropyrimidine-5-carboxamide]"
18,16.4,"Cc1nc[nH]c1/C=C1\C(=O)Nc2cc(/C=C/CNC(=O)c3cncn(Cc4ccc(F)c(F)c4)c3=O)ccc21 [I-4, 1-(3,4-difluorobenzyl)-N-[(2E)-3-{(3Z)-3-[(5-methyl-1H-imidazol-4-yl)methylidene]-2-oxo-2,3-dihydro-1H-indol-6-yl]prop-2-en-1-yl}-6-oxo-1,6-dihydropyrimidine-5-carboxamide]"
19,17.5,"O=C1Nc2cc(/C=C/CNC(=O)c3ccnn(Cc4ccc(F)c(F)c4)c3=O)ccc2/C1=C/c1cnc[nH]1 [I-6, 2-(3,4-difluorobenzyl)-N-{(2E)-3-[(3Z)-3-(1H-imidazol-5-ylmethylidene)-2-oxo-2,3-dihydro-1H-indol-6-yl]prop-2-en-1-yl}-3-oxo-2,3-dihydropyridazine-4-carboxamide]"
20,25.7,"O=C1Nc2cc(/C=C/CNC(=O)C3CCCN(Cc4ccc(F)c(F)c4)C3=O)ccc2/C1=C/c1cnc[nH]1 (stereo not drawn) [I-9, 1-(3,4-difluorobenzyl)-N-{(2E)-3-[(3Z)-3-(1H-imidazol-5-ylmethylidene)-2-oxo-2,3-dihydro-1H-indol-6-yl]prop-2-en-1-yl}-2-oxopiperidine-3-carboxamide]"
21,36.1,"O=C1Nc2cc(/C=C/CNC(=O)C3CCCN(Cc4ccc(F)c(F)c4)C3=O)ccc2/C1=C/c1ccc[nH]1 (stereo not drawn) [I-10, 1-(3,4-difluorobenzyl)-2-oxo-N-{(2E)-3-[(3Z)-2-oxo-3-(1H-pyrrol-2-ylmethylidene)-2,3-dihydro-1H-indol-6-yl]prop-2-en-1-yl}piperidine-3-carboxamide]"
22,21.7,"O=C1Nc2cc(/C=C/CNC(=O)C3CCN(Cc4ccc(F)c(F)c4)C3=O)ccc2/C1=C/c1cnc[nH]1 (stereo not drawn) [I-11, 1-(3,4-difluorobenzyl)-N-{(2E)-3-[(3Z)-3-(1H-imidazol-5-ylmethylidene)-2-oxo-2,3-dihydro-1H-indol-6-yl]prop-2-en-1-yl}-2-oxopyrrolidine-3-carboxamide]"
23,15.4,"Cc1c(C(=O)NC/C=C/c2ccc3c(c2)NC(=O)/C3=C\c2ccc[nH]2)c(=O)n(Cc2ccc(F)c(F)c2)n1C [I-16, 2-(3,4-difluorobenzyl)-1,5-dimethyl-3-oxo-N-{(2E)-3-[(3Z)-2-oxo-3-(1H-pyrrol-2-ylmethylidene)-2,3-dihydro-1H-indol-6-yl]prop-2-en-1-yl}-2,3-dihydro-1H-pyrazole-4-carboxamide]"
24,14.3,"Cc1c(C(=O)NC/C=C/c2ccc3c(c2)NC(=O)/C3=C\c2cnc[nH]2)c(=O)n(Cc2ccc(F)c(F)c2)n1C [I-17, 2-(3,4-difluorobenzyl)-N-{(2E)-3-[(3Z)-3-(1H-imidazol-5-ylmethylidene)-2-oxo-2,3-dihydro-1H-indol-6-yl]prop-2-en-1-yl}-1,5-dimethyl-3-oxo-2,3-dihydro-1H-pyrazole-4-carboxamide]"
25,36.9,"O=C1Nc2cc(/C=C/CNC(=O)c3cccc(Nc4ccc(F)c(F)c4)n3)ccc2/C1=C/c1ccc[nH]1 [I-19, 6-[(3,4-difluorophenyl)amino]-N-{(2E)-3-[(3Z)-2-oxo-3-(1H-pyrrol-2-ylmethylidene)-2,3-dihydro-1H-indol-6-yl]prop-2-en-1-yl}pyridine-2-carboxamide]"
26,42.7,"O=C1Nc2cc(/C=C/CNC(=O)c3cccc(Nc4ccc(F)c(F)c4)n3)ccc2/C1=C/c1cnc[nH]1 [I-20, 6-[(3,4-difluorophenyl)amino]-N-{(2E)-3-[(3Z)-3-(1H-imidazol-5-ylmethylidene)-2-oxo-2,3-dihydro-1H-indol-6-yl]prop-2-en-1-yl}pyridine-2-carboxamide]"
27,12,"O=C1Nc2cc(/C=C/CNC(=O)c3cc(Cl)nn(Cc4ccc(F)c(F)c4)c3=O)ccc2/C1=C/c1cnc[nH]1 [I-33, 6-chloro-2-(3,4-difluorobenzyl)-N-{(2E)-3-[(3Z)-3-(1H-imidazol-5-ylmethylidene)-2-oxo-2,3-dihydro-1H-indol-6-yl]prop-2-en-1-yl}-3-oxo-2,3-dihydropyridazine-4-carboxamide]"
28,21.4,"O=C1Nc2cc(/C=C/CNC(=O)c3cc(Cl)nn(Cc4ccc(F)c(F)c4)c3=O)ccc2/C1=C/c1ccc[nH]1 [I-34, 6-chloro-2-(3,4-difluorobenzyl)-3-oxo-N-{(2E)-3-[(3Z)-2-oxo-3-(1H-pyrrol-2-ylmethylidene)-2,3-dihydro-1H-indol-6-yl]prop-2-en-1-yl}-2,3-dihydropyridazine-4-carboxamide]"
29,10.7,"Cc1nc(/C=C2\C(=O)Nc3cc(/C=C/CNC(=O)c4cncn(Cc5ccc(F)c(F)c5)c4=O)ccc32)c[nH]1 [I-35, 1-(3,4-difluorobenzyl)-N-[(2E)-3-{(3Z)-3-[(2-methyl-1H-imidazol-4-yl)methylidene]-2-oxo-2,3-dihydro-1H-indol-6-yl}prop-2-en-1-yl]-6-oxo-1,6-dihydropyrimidine-5-carboxamide]"
30,25.4,"O=C1Nc2cc(/C=C/CNC(=O)c3cncn(Cc4ccc(F)c(F)c4)c3=O)ccc2/C1=C/c1c[nH]c(-c2cccnc2)n1 [I-36, 1-(3,4-difluorobenzyl)-6-oxo-N-{(2E)-3-[(3Z)-2-oxo-3-{[2-(pyridin-3-yl)-1H-imidazol-4-yl]methylidene}-2,3-dihydro-1H-indol-6-yl]prop-2-en-1-yl}-1,6-dihydropyrimidine-5-carboxamide]"
